Here are results for seven compounds from patent publication US20240382471A1, “GLUCAGON-LIKE PEPTIDE-1 RECEPTOR MODULATORS AND USES THEREOF” (HEPAGENE THERAPEUTICS (HK) LIMITED, priority 2021, published 2024).

The target in assay [1] is T1, GLP1R (Homo sapiens, UniProt P43220). The assay can be described thus: GLP1R cAMP assay (HTRF cAMP detection, agonist activity). To be noted: Flp-In-293-GLP1R cells, 30 min at 37° C., read-out: EC50 (nM) Assay 1. Further details: host or cells: Flp-In-293. The format is cell-based.
Target sequence in this assay (P43220 24-463, species assumed): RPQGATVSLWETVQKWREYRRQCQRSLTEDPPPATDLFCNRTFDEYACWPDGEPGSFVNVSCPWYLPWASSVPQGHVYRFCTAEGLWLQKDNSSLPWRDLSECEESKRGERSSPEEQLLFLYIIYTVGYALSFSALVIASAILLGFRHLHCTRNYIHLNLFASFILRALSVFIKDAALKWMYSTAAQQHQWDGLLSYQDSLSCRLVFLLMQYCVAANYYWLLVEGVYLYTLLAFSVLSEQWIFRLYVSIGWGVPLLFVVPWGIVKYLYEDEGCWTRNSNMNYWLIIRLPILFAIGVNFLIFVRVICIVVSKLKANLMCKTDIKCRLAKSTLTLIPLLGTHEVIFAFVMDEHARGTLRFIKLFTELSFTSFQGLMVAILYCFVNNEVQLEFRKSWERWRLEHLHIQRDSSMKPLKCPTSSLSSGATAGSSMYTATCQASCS
For assay [2], the target named is T1, GLP1R. Put plainly: GLP1R/CRE-Luc luciferase reporter gene assay (agonist activity). The format is cell-based. More on the design: host or cells: HKE293 (so in the source). The settings on record: HKE293-Human GLP1R/CRE-luc cells, 5 h at 37° C., read-out: EC50 (nM) Assay 2. A general note: Reporter assays use an easily measured gene product as a stand-in for the process of interest.
Target sequence in this assay (P43220 24-463): as the sequence (P43220 24-463, species assumed) above

Some results are limits rather than exact numbers.

Take `N#Cc1ccc(COc2cccc(C34CCN(Cc5nc6c(F)cc(C(=O)O)cc6n5C[C@@H]5CCO5)CC3C4)n2)c(F)c1` (single isomer, unassigned) [Compound 1-10-A]: the EC50 was 0.009 nM at GLP1R [1] and 19.3 nM at GLP1R [2].

As for `N#Cc1ccc(COc2cccc(N3C4CCC3CN(Cc3nc5ccc(C(=O)O)cc5n3C[C@@H]3CCO3)C4)c2)c(F)c1` [Compound 2-35, 2-((−8-(3-((4-cyano-2-fluorobenzyl)oxy)phenyl)-3,8-diazabicyclo[3.2.1]octan-3-yl)methyl)-1-(((S)-oxetan-2-yl)methyl)-1H-benzo[d]imidazole-6-carboxylic acid], the EC50 at GLP1R [1] is 2.79 nM; at GLP1R [2] it was above 1000 nM.

With `N#Cc1ccc(COc2cccc(C34CCN(Cc5nc6ccc(C(=O)O)cc6n5C[C@@H]5CCO5)CC3C4)n2)c(F)c1` (stereo partly drawn) [Compound 1-1, 2-[(6-{6-[(4-cyano-2-fluorophenyl)methoxy]pyridin-2-yl}-3-azabicyclo[4.1.0]heptan-3-yl)methyl]-3-[(2S)-oxetan-2-ylmethyl]-1,3-benzodiazole-5-carboxylic acid], the values for the 50% effective concentration (EC50) at GLP1R [1] and on GLP1R [2] were 0.029 nM and 80.8 nM, respectively.

Turning to `O=C(O)c1ccc2nc(CN3CCC4(c5cccc(OCc6ccc(C(F)(F)F)cc6F)n5)CC4C3)n(C[C@@H]3CCO3)c2c1` (stereo partly drawn) [Compound 1-8, 2-{[6-(6-{[2-fluoro-4-(trifluoromethyl)phenyl]methoxy}pyridin-2-yl)-3-azabicyclo[4.1.0]heptan-3-yl]methyl}-3-[(2S)-oxetan-2-ylmethyl]-1,3-benzodiazole-5-carboxylic acid], the EC50 on GLP1R [1] amounted to 0.035 nM; at GLP1R [2] it was 108 nM.

Turning to `O=C(O)c1ccc2nc(CN3CCC4(c5cccc(OCc6ccc(Cl)cc6F)n5)CC4C3)n(C[C@@H]3CCO3)c2c1` (stereo partly drawn) [Compound 1-5, 2-((6-(6-((4-chloro-2-fluorobenzyl)oxy)pyridin-2-yl)-3-azabicyclo[4.1.0]heptan-3-yl)methyl)-1-(((S)-oxetan-2-yl)methyl)-1H-benzo[d]imidazole-6-carboxylic acid], the EC50 on GLP1R [1] was 0.03 nM; on GLP1R [2], 100 nM.

Turning to `N#Cc1ccc(COc2ccnc(N3C4CCC3CN(Cc3nc5ccc(C(=O)O)cc5n3C[C@@H]3CCO3)C4)c2)c(F)c1` [Compound 2-34, 2-((−8-(4-((4-cyano-2-fluorobenzyl)oxy)pyridin-2-yl)-3,8-diazabicyclo[3.2.1]octan-3-yl)methyl)-1-(((S)-oxetan-2-yl)methyl)-1H-benzo[d]imidazole-6-carboxylic acid], the values for the concentration for a half-maximal effect (EC50) at GLP1R [1] and on GLP1R [2] were above 4 nM and above 1000 nM, respectively.

With `N#Cc1ccc(COc2cccc(C34CCN(Cc5nc6c(F)cc(C(=O)O)cc6n5C[C@@H]5CCO5)CC3C4)n2)c(F)c1` (single isomer, unassigned) [Compound 1-10-B], the EC50 on GLP1R [1] was found to be 0.021 nM; at GLP1R [2] it was 47.6 nM.

The EC50 is the concentration giving half of the maximal effect.
